The structures appear in SMILES notation.

The target in one experiment is T1, P2X7 receptor (Homo sapiens, UniProt Q99572).
T1 construct: host or cells: THP-1 cells differentiated with LPS and IFN-γ
T1 sequence (Q99572 1-595): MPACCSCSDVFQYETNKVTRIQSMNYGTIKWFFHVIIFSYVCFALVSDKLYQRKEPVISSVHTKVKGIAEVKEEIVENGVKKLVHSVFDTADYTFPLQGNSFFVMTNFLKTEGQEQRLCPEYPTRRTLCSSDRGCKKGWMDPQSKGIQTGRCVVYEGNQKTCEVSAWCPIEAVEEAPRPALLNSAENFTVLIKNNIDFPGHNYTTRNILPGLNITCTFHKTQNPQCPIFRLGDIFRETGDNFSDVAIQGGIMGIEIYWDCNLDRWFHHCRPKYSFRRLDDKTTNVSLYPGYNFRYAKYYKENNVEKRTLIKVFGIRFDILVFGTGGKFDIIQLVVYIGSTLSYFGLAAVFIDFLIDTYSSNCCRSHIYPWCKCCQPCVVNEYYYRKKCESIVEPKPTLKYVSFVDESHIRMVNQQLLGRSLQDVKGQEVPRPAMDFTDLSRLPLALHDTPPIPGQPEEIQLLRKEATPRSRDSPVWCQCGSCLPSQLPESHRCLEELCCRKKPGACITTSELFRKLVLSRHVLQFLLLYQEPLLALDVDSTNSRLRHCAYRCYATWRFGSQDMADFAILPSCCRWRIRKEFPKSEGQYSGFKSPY
The experiment in a line: IL-1β release assay in differentiated THP-1 cells stimulated with BzATP (Example 9). Format: cell-based. Particulars: 0.3 μM compound; differentiated THP-1 cells, BzATP 250 uM; "+" symbols; read-out: IL-1β % Inhib. @ 0.3 or 0.1 uM. The method, boiled down: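 IC50 derived by four-parameter logistic fit of percent inhibition of IL-1β release (ELISA, background-adjusted). Release triggered by 45 min BzATP at 250 uM final after 30 min compound pretreatment of THP-1 cells previously differentiated 16 h (LPS, IFN-γ, 100 ng/mL each) and re-primed 2 h with LPS.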
Consider `C[C@H](C(=O)Nc1cccc2c(=O)n([C@H](C)C(=O)O)ccc12)c1ccc(Cl)cc1` [Compound 322, (R)-2-{5-[(S)-2-(4-Chloro-phenyl)-propionylamino]-1-oxo-1H-isoquinolin-2-yl}-propionic acid], for which the inhibition at 0.3 µM was 26 to 50%.

Consider `CC(C)[C@H](C(=O)O)n1ccc2c(NC(=O)[C@@H](C)c3ccc(Cl)cc3)cccc2c1=O` [Compound 323, (R)-2-{5-[(S)-2-(4-Chloro-phenyl)-propionylamino]-1-oxo-1H-isoquinolin-2-yl}-3-methyl-butyric acid], for which the inhibition at 0.3 µM fell in the range of 51 to 75%. Same read-out and setting: the value for `C[C@@H](CO)n1ccc2c(NC(=O)Cc3cccc(C(F)(F)F)c3F)cccc2c1=O` [Compound 325] was above 76%. Regarding `C[C@H](C(=O)Nc1cccc2c(=O)n([C@@H](C)CO)ccc12)c1ccc(Cl)c(Cl)c1` [Compound 326], the inhibition at 0.3 µM lay in the range of 51 to 75%. On to `C[C@H](CO)n1ccc2c(NC(=O)Cc3ccc(Cl)cc3F)cccc2c1=O` [Compound 327], for which the inhibition at 0.3 µM is above 76%.

Turning to `C[C@@H](CO)n1ccc2c(NC(=O)Cc3ccc(Cl)cc3F)cccc2c1=O` [Compound 328], the inhibition at 0.3 µM lay in the range of 51 to 75%.

For the molecule `C[C@H](CO)n1ccc2c(NC(=O)Cc3ccc(F)c(Cl)c3)cccc2c1=O` [Compound 329], the inhibition at 0.3 µM lay in the range of 51 to 75%. Take `C[C@@H](CO)n1ccc2c(NC(=O)Cc3ccc(F)c(Cl)c3)cccc2c1=O` [Compound 331]: the inhibition at 0.3 µM lay within 51 to 75%. In the case of `C[C@@H](CO)n1ccc2c(NC(=O)Cc3ccc(Cl)c(Cl)c3)cccc2c1=O` [Compound 332], the inhibition at 0.3 µM is above 76%. For `C[C@@H](CO)n1ccc2c(NC(=O)Cc3ccc(Cl)c(F)c3)cccc2c1=O` [Compound 334], the inhibition at 0.3 µM lay within 51 to 75%. Still for that read-out and setting: the figure for `C[C@@H](CO)n1ccc2c(NC(=O)Cc3ccc(C(F)(F)F)c(F)c3)cccc2c1=O` [Compound 336] is above 76%; for `C[C@@H](CO)n1ccc2c(NC(=O)Cc3ccc(F)c(C(F)(F)F)c3)cccc2c1=O` [Compound 338] it is above 76%; for `C[C@H](C(=O)Nc1c(Cl)ccc2c(=O)n([C@H](C)C(N)=O)ccc12)c1ccc(Cl)cc1` [Compound 340] it is above 76%. Same read-out and setting: the value for `O=C(Cc1ccc(F)c(Cl)c1)Nc1cccc2c(=O)n(CCO)ccc12` [Compound 341] was above 76%; that for `C[C@H](C(N)=O)n1ccc2c(NC(=O)Cc3ccc(Cl)cc3F)c(Cl)ccc2c1=O` [Compound 343] was 26 to 50%.

With `COc1ccc2c(=O)n([C@H](C)C(N)=O)ccc2c1NC(=O)Cc1ccc(C(F)(F)F)cc1` [Compound 344, (R)-2-{6-Methoxy-1-oxo-5-[2-(4-trifluoromethyl-phenyl)-acetylamino]-1H-isoquinolin-2-yl}-propionamide], the inhibition at 0.3 µM was above 76%. In the case of `C[C@@H](C(N)=O)n1ccc2c(NC(=O)Cc3ccc(F)c(Cl)c3)cccc2c1=O` [Compound 346], the inhibition at 0.3 µM is above 76%. As for `C[C@@H](C(N)=O)n1ccc2c(NC(=O)Cc3ccc(C(F)(F)F)c(F)c3)cccc2c1=O` [Compound 347], the inhibition at 0.3 µM is above 76%. For `C[C@@H](C(N)=O)n1ccc2c(NC(=O)Cc3ccc(F)c(C(F)(F)F)c3)cccc2c1=O` [Compound 348], the inhibition at 0.3 µM is above 76%. Take `C[C@@H](C(N)=O)n1ccc2c(NC(=O)Cc3cccc(C(F)(F)F)c3F)cccc2c1=O` [Compound 349]: the inhibition at 0.3 µM was above 76%. In the case of `C[C@@H](C(N)=O)n1ccc2c(NC(=O)Cc3ccc(Cl)cc3F)cccc2c1=O` [Compound 350], the inhibition at 0.3 µM was above 76%. Take `C[C@@H](C(N)=O)n1ccc2c(NC(=O)Cc3ccc(Cl)c(F)c3)cccc2c1=O` [Compound 352]: the inhibition at 0.3 µM was above 76%.

Turning to `O=C(Cc1ccc(Cl)c(F)c1)Nc1cccc2c(=O)n(CCO)ccc12` [Compound 354], the inhibition at 0.3 µM was above 76%. `CC(C(=O)Nc1cccc2c(=O)n([C@@H](C)C(N)=O)ccc12)c1cccc(C(F)(F)F)c1F` (stereo partly drawn) [Compound 355]: the inhibition at 0.3 µM was above 76%.

With `CC(C(=O)Nc1cccc2c(=O)n([C@@H](C)C(N)=O)ccc12)c1ccc(Cl)c(C(F)(F)F)c1` (stereo partly drawn) [Compound 356], the inhibition at 0.3 µM was above 76%. Regarding `COc1ccc2c(=O)n([C@H](C)CO)ccc2c1NC(=O)Cc1ccc(C(F)(F)F)c(F)c1` [Compound 358], the inhibition at 0.3 µM lay in the range of 0 to 25%. For `CC(C)(CO)n1ccc2c(NC(=O)Cc3ccc(C(F)(F)F)cc3)cccc2c1=O` [Compound 363], the inhibition at 0.3 µM was 51 to 75%.

As for `CC(C)(CO)n1ccc2c(NC(=O)Cc3ccc(C(F)(F)F)c(F)c3)cccc2c1=O` [Compound 365], the inhibition at 0.3 µM is above 76%. With `CC(C)(CO)n1ccc2c(NC(=O)Cc3ccc(C(F)(F)F)cc3C(F)(F)F)cccc2c1=O` [Compound 366], the inhibition at 0.3 µM fell in the range of 0 to 25%. In the case of `CC(C)(CO)n1ccc2c(NC(=O)Cc3ccc(F)c(C(F)(F)F)c3)cccc2c1=O` [Compound 367], the inhibition at 0.3 µM was above 76%. On to `CC(C)(CO)n1ccc2c(NC(=O)Cc3cccc(C(F)(F)F)c3F)cccc2c1=O` [Compound 368], for which the inhibition at 0.3 µM is above 76%.

Turning to `CC(C)(CO)n1ccc2c(NC(=O)Cc3ccc(C(F)(F)F)cc3F)cccc2c1=O` [Compound 370], the inhibition at 0.3 µM was above 76%. The same measure, in the same setting: the value for `CC(C)(CO)n1ccc2c(NC(=O)Cc3ccc(Cl)c(Cl)c3)cccc2c1=O` [Compound 371] was 51 to 75%.

For the molecule `CC(C)(CO)n1ccc2c(NC(=O)Cc3ccc(F)c(Cl)c3)cccc2c1=O` [Compound 372], the inhibition at 0.3 µM was 0 to 25%. As to `CC(C)(CO)n1ccc2c(NC(=O)Cc3ccc(Cl)c(F)c3)cccc2c1=O` [Compound 373], the inhibition at 0.3 µM was 51 to 75%.

With `CC(C)(CO)n1ccc2c(NC(=O)Cc3ccc(Cl)cc3F)cccc2c1=O` [Compound 374], the inhibition at 0.3 µM is above 76%. Regarding `C[C@H](CO)n1ccc2c(NC(=O)Cc3ccc(C(F)(F)F)cc3F)c(Cl)ccc2c1=O` [Compound 378], the inhibition at 0.3 µM was above 76%.

As for `C[C@H](C(N)=O)n1ccc2c(NC(=O)Cc3ccc(F)c(F)c3F)cccc2c1=O` [Compound 379], the inhibition at 0.3 µM is above 76%. Take `C[C@H](C(N)=O)n1ccc2c(NC(=O)Cc3ccc(C(F)(F)F)cc3C(F)(F)F)cccc2c1=O` [Compound 380]: the inhibition at 0.3 µM was above 76%. Regarding `C[C@H](C(N)=O)n1ccc2c(NC(=O)Cc3cc(F)c(F)c(F)c3)cccc2c1=O` [Compound 381], the inhibition at 0.3 µM is above 76%. Same read-out and setting: the figure for `C[C@H](CO)n1ccc2c(NC(=O)Cc3ccc(C(F)(F)F)c(F)c3)c(C3CC3)ccc2c1=O` [Compound 384, N-[6-Cyclopropyl-2-((R)-2-hydroxy-1-methyl-ethyl)-1-oxo-1,2-dihydro-isoquinolin-5-yl]-2-(3-fluoro-4-trifluoromethyl-phenyl)-acetamide] is above 76%.

The same experiment, now with this note: THP-1, read-out: IL-1β % Inhib. @ 0.3 or 0.1 uM.
In the case of `C[C@@H](C(N)=O)n1ccc2c(NC(=O)Cc3ccc(C(F)(F)F)cc3)c(Cl)ccc2c1=O` [Compound 345, (S)-2-{6-Chloro-1-oxo-5-[2-(4-trifluoromethyl-phenyl)-acetylamino]-1H-isoquinolin-2-yl}-propionamide], the inhibition at 0.3 µM is above 76%.

The values are drawn from patent publication US20110092476A1, “Bicycloheteroaryl compounds as P2X7 modulators and uses thereof” (Renovis, Inc., priority 2006, published 2011).
